Positions of bridges follow the written chain, without caps; N, C: chain ends. Residues, ends and D or L forms follow the SMILES beside them.
What was measured:
[1] = molecular target: NaV1.3 (Homo sapiens, UniProt Q9NY46); test: Slowing of fast inactivation of NaV1.3; format: cell-based
Method: Sodium channel currents were recorded from HEK293 cells expressing human NaV isoforms together with the β1 auxiliary subunit (SB Drug Discovery, Glasgow, UK) using the QPatch 16X automated whole-cell patch-clamp platform (Sophion Bioscience A/S, Ballerup, Denmark). The external recording solution contained (in mM) the following: 140 NaCl, 3 KCl, 1 CaCl2, 1 MgCl2, 0.1 CdCl2, 20 tetraethylammonium chloride (TEA-Cl), and 5 HEPES; pH was adjusted to 7.3 and osmolarity to 320 mOsm. The internal (pipette) solution consisted of (in mM) the following: 140 CsF, 10 NaCl, 10 HEPES, and 1/5 EGTA/CsOH, also adjusted to pH 7.3 and 320 mOsm. Cells were voltage-clamped at a holding potential of −80 mV, and inward Na^+ currents were evoked by 20 ms depolarizing pulses to 0 mV following a 200 ms hyperpolarizing prepulse to −120 mV. To obtain concentration–response curves, cells at holding potential were incubated for 5 min with increasing concentrations of Oa1a peptides. For determining the potency of Oa1a peptides to inhibit peak current, the maximum peak current within the 20 ms at 0 mV was measured. For determining the potency of Oa1a-NH2 to slow fast inactivation, peak current values were measured at 20 ms of the 0 mV depolarization step. Ion currents (INa) were plotted as I/Imax, where I = current value and Imax = highest current value within the experiment.
(§1) For calcium influx experiments, bioactivity comparisons between venom fractions and controls were based on the difference between the maximal and minimal fluorescence intensity values obtained from single-replicate assays. Electrophysiological data analysis was conducted using GraphPad Prism (version 8; GraphPad Software, San Diego, CA, USA). Nonlinear regression was applied to fit the concentration–response relationships using a variable Hill slope: log(inhibitor) versus normalized response for determining IC50 values, and log(agonist) versus normalized response for EC50 calculations. Reversibility and dissociation kinetics were analyzed by fitting data with a single-phase exponential decay model, while voltage-dependence of steady-state activation and inactivation parameters were derived from Boltzmann sigmoid fits of normalized conductance (G/Gmax) or current (I/Imax) values to determine the half-activation or half-inactivation voltages (V50). Data are expressed as mean ± SEM, where n represents the number of individual cells analyzed.

[2] = molecular target: hNaV1.4 (Homo sapiens, UniProt P35499); test: hNaV1.4 peak current inhibition, automated whole-cell patch clamp (QPatch 16X); format: cell-based; settings: HEK293 + β1; holding −80 mV, 20 ms step to 0 mV from −120 mV 200 ms prepulse; 5 min incubation; mean ± SEM, 3 to 9 independent experiments; read-out: IC50, inhibition of peak current, NaV1.4
Method: (§2) Unless otherwise specified, all cell culture reagents were obtained from Life Technologies (Carlsbad, CA, USA). The human neuroblastoma cell line SH-SY5Y (ATCC CRL-2266; Manassas, VA, USA) was maintained in RPMI medium supplemented with 15% fetal bovine serum (FBS) and 2 mM L-glutamine. HEK293 cells stably expressing human NaV channel isoforms together with the β1 auxiliary subunit (SB Drug Discovery, Glasgow, UK) were propagated in Minimal Essential Medium (MEM; Sigma-Aldrich, St. Louis, MO, USA) containing 10% FBS, 100 U/mL penicillin, 100 µg/mL streptomycin, 2 mM L-glutamine, and selective antibiotics (blasticidin, geneticin, and zeocin) at concentrations recommended by the supplier. […]
(§3) Sodium channel currents were recorded from HEK293 cells expressing human NaV isoforms together with the β1 auxiliary subunit (SB Drug Discovery, Glasgow, UK) using the QPatch 16X automated whole-cell patch-clamp platform (Sophion Bioscience A/S, Ballerup, Denmark). […] For determining the potency of Oa1a peptides to inhibit peak current, the maximum peak current within the 20 ms at 0 mV was measured. For determining the potency of Oa1a-NH2 to slow fast inactivation, peak current values were measured at 20 ms of the 0 mV depolarization step. […]
as §1, with “Electrophysiological data analysis was conducted using GraphPad Prism (version 8; GraphPad Software, San Diego, CA, USA). Nonlinear regression was applied to fit the concentration–response relationships using a variable Hill slope: log(inhibitor) versus normalized response for determining IC50 values, and log(agonist) versus normalized response for EC50 calculations.” left out

[3] = molecular target: hNaV1.2 (Homo sapiens, UniProt Q99250); test: hNaV1.2 peak current inhibition, automated whole-cell patch clamp (QPatch 16X); format: cell-based; settings: HEK293 + β1; holding −80 mV, 20 ms step to 0 mV from −120 mV 200 ms prepulse; 5 min incubation; mean ± SEM, 3 to 9 independent experiments; read-out: IC50, inhibition of peak current, NaV1.2
Method: as §2, §3
as §1, with “Electrophysiological data analysis was conducted using GraphPad Prism (version 8; GraphPad Software, San Diego, CA, USA). Nonlinear regression was applied to fit the concentration–response relationships using a variable Hill slope: log(inhibitor) versus normalized response for determining IC50 values, and log(agonist) versus normalized response for EC50 calculations.” left out

[4] = molecular target: hNaV1.3 (Homo sapiens, UniProt Q9NY46); test: hNaV1.3 peak current inhibition, automated whole-cell patch clamp (QPatch 16X); format: cell-based; settings: HEK293 + β1; holding −80 mV, 20 ms step to 0 mV from −120 mV 200 ms prepulse; 5 min incubation; mean ± SEM, 3 to 9 independent experiments; read-out: IC50, inhibition of peak current, NaV1.3
Method: as §2, §3
as §1, with “Electrophysiological data analysis was conducted using GraphPad Prism (version 8; GraphPad Software, San Diego, CA, USA). Nonlinear regression was applied to fit the concentration–response relationships using a variable Hill slope: log(inhibitor) versus normalized response for determining IC50 values, and log(agonist) versus normalized response for EC50 calculations.” left out

[5] = molecular target: NaV1.1 (Homo sapiens, UniProt P35498); test: Off-rate / reversibility on NaV1.1, patch clamp with saline washes; format: cell-based
Method: For off-rate measurements, cells at a holding potential −80 mV were incubated with peptide for 10 min at a concentration equivalent to 10 times their IC50 for the NaV subtype being analyzed, followed by saline washes. Na^+ currents were assessed every 10 s utilizing a holding potential −80 mV and currents elicited by 20 ms voltage step to 0 mV from a −120 mV conditioning pulse applied for 200 ms. Ion currents (INa) plotted as I/Imax, where I = current value and Imax = highest current value within the experiment.
as §1

[6] = molecular target: hNaV1.7 (Homo sapiens, UniProt Q15858); test: hNaV1.7 peak current inhibition, automated whole-cell patch clamp (QPatch 16X); format: cell-based; settings: HEK293 + β1; holding −80 mV, 20 ms step to 0 mV from −120 mV 200 ms prepulse; 5 min incubation; mean ± SEM, 3 to 9 independent experiments; read-out: IC50, inhibition of peak current, NaV1.7
Method: as §2, §3
as §1, with “Electrophysiological data analysis was conducted using GraphPad Prism (version 8; GraphPad Software, San Diego, CA, USA). Nonlinear regression was applied to fit the concentration–response relationships using a variable Hill slope: log(inhibitor) versus normalized response for determining IC50 values, and log(agonist) versus normalized response for EC50 calculations.” left out

[7] = test system: hNaV1.1 to hNaV1.7; test: NaV subtype preference across NaV1.1 to NaV1.7, patch clamp; format: cell-based, human; settings: NaV1.1 to NaV1.7, closed-state voltage protocol
Method: Unless otherwise specified, all cell culture reagents were obtained from Life Technologies (Carlsbad, CA, USA). The human neuroblastoma cell line SH-SY5Y (ATCC CRL-2266; Manassas, VA, USA) was maintained in RPMI medium supplemented with 15% fetal bovine serum (FBS) and 2 mM L-glutamine. HEK293 cells stably expressing human NaV channel isoforms together with the β1 auxiliary subunit (SB Drug Discovery, Glasgow, UK) were propagated in Minimal Essential Medium (MEM; Sigma-Aldrich, St. Louis, MO, USA) containing 10% FBS, 100 U/mL penicillin, 100 µg/mL streptomycin, 2 mM L-glutamine, and selective antibiotics (blasticidin, geneticin, and zeocin) at concentrations recommended by the supplier. HEK293T cells expressing the human CaV3.2 channel (a generous gift from Prof. Emmanuel Bourinet, Institut de Génomique Fonctionnelle, Université de Montpellier, France, and Prof. Edward Perez-Reyes, University of Virginia School of Medicine, USA) were grown in Dulbecco’s MEM supplemented with 10% FBS, 100 U/mL penicillin, 100 µg/mL streptomycin, and 750 µg/mL geneticin.
Sodium channel currents were recorded from HEK293 cells expressing human NaV isoforms together with the β1 auxiliary subunit (SB Drug Discovery, Glasgow, UK) using the QPatch 16X automated whole-cell patch-clamp platform (Sophion Bioscience A/S, Ballerup, Denmark). The external recording solution contained (in mM) the following: 140 NaCl, 3 KCl, 1 CaCl2, 1 MgCl2, 0.1 CdCl2, 20 tetraethylammonium chloride (TEA-Cl), and 5 HEPES; pH was adjusted to 7.3 and osmolarity to 320 mOsm. The internal (pipette) solution consisted of (in mM) the following: 140 CsF, 10 NaCl, 10 HEPES, and 1/5 EGTA/CsOH, also adjusted to pH 7.3 and 320 mOsm. […] For determining the potency of Oa1a peptides to inhibit peak current, the maximum peak current within the 20 ms at 0 mV was measured. For determining the potency of Oa1a-NH2 to slow fast inactivation, peak current values were measured at 20 ms of the 0 mV depolarization step. […]
as §1, with “Electrophysiological data analysis was conducted using GraphPad Prism (version 8; GraphPad Software, San Diego, CA, USA). Nonlinear regression was applied to fit the concentration–response relationships using a variable Hill slope: log(inhibitor) versus normalized response for determining IC50 values, and log(agonist) versus normalized response for EC50 calculations.” left out

NaV1.3, sequence (Q9NY46 whole entry, canonical isoform): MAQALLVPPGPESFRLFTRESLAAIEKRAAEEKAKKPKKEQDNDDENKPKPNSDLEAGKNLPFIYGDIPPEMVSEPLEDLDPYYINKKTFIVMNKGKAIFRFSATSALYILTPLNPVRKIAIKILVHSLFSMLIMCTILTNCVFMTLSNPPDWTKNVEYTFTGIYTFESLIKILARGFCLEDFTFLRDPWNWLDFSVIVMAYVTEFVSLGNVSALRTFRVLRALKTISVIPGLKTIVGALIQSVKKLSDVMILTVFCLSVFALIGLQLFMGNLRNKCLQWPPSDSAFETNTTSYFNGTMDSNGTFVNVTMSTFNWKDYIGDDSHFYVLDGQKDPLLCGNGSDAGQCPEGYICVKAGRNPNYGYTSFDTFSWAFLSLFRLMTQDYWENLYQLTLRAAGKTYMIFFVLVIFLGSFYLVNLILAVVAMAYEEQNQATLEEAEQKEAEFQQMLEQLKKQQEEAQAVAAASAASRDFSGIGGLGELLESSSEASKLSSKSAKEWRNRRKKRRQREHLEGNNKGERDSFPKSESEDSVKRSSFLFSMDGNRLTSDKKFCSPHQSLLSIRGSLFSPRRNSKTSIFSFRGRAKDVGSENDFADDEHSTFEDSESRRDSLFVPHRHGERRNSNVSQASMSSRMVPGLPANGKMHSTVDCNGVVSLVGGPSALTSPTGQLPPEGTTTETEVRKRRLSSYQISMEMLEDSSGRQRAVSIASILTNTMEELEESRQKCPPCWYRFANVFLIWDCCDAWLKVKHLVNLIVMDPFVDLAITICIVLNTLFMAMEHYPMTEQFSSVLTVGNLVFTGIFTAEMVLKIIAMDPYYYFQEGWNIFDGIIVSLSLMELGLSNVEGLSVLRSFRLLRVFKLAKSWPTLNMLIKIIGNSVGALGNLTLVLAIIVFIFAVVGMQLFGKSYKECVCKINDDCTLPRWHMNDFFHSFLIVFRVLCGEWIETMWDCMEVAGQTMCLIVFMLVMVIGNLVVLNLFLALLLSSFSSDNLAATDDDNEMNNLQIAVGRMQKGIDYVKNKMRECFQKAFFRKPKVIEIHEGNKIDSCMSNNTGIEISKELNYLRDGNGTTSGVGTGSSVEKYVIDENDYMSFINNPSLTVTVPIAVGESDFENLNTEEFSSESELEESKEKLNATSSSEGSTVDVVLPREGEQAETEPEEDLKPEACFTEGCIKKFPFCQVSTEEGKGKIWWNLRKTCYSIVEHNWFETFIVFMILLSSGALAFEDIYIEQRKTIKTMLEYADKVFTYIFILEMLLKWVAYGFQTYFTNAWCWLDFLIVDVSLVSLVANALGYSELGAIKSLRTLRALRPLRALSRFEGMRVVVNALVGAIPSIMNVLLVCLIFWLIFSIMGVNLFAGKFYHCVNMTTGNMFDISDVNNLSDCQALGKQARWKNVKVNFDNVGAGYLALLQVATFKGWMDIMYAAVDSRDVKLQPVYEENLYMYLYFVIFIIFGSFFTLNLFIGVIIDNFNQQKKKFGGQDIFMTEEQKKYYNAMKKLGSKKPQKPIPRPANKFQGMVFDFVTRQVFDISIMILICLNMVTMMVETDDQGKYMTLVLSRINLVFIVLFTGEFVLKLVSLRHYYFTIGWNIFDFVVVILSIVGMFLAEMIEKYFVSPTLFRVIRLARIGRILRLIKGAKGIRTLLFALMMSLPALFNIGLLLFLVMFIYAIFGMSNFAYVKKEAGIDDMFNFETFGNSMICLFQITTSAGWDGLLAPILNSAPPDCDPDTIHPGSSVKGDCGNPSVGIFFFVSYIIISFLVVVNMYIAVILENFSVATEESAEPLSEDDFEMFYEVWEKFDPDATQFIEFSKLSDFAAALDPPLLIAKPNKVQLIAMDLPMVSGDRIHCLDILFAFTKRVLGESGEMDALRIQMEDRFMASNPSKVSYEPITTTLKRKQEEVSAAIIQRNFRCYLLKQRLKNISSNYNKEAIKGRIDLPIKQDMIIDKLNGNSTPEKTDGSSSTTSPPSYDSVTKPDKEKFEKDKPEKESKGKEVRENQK
NaV1.3, sequence (Q07699 19-218, further chain): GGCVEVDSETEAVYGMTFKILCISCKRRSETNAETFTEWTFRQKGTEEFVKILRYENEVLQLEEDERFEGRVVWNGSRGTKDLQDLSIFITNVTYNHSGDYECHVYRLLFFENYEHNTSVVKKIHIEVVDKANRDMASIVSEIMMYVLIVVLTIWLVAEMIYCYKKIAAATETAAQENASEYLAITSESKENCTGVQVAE
hNaV1.4, sequence (P35499 whole entry, canonical isoform): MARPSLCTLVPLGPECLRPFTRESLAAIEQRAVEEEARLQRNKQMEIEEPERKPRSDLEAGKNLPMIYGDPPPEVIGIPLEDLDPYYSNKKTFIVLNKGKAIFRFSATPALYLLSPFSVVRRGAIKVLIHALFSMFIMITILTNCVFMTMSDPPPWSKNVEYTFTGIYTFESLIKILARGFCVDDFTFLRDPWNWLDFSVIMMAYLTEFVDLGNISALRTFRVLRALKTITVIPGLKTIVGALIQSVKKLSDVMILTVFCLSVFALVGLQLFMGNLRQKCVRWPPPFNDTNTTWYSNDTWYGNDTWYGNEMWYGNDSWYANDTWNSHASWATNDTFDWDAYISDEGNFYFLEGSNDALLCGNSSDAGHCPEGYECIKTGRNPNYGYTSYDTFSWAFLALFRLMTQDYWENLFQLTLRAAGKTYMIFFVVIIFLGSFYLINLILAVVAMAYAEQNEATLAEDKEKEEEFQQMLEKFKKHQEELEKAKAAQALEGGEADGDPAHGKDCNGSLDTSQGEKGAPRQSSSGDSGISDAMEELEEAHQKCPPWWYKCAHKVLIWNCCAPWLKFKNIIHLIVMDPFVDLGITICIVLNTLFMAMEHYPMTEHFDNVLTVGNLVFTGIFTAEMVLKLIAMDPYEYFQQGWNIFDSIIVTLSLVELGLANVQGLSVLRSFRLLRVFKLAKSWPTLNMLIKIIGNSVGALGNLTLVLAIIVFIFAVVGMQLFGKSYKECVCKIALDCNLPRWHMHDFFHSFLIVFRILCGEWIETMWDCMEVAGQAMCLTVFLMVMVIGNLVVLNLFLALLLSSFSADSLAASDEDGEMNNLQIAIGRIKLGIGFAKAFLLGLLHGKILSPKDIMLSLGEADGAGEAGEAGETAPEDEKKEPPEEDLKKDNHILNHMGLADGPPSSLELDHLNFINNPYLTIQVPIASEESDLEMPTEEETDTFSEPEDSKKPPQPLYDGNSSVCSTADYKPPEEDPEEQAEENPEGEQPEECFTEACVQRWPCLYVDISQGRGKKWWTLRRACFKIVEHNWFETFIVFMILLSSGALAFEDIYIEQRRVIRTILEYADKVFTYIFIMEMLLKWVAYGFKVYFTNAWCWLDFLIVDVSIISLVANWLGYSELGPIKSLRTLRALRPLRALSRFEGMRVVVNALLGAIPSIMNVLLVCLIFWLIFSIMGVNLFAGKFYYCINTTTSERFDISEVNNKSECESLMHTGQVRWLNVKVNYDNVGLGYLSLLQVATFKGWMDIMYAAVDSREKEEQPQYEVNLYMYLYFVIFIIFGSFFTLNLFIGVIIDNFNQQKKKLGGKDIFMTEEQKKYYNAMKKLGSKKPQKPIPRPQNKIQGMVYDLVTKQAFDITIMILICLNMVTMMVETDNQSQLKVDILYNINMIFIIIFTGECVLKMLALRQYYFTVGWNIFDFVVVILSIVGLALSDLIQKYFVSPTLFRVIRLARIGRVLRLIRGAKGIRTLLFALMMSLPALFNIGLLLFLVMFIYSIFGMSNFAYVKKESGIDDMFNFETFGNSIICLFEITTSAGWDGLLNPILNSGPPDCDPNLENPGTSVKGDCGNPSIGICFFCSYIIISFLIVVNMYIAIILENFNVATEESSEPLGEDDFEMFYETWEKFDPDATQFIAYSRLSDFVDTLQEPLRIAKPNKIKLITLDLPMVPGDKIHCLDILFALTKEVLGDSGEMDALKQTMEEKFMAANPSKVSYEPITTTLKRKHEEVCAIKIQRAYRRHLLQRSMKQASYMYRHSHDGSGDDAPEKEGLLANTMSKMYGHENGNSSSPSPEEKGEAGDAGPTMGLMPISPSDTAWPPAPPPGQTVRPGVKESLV
hNaV1.4, sequence (Q07699 19-218, further chain): as the sequence (Q07699 19-218, further chain) above
hNaV1.3, sequence (Q9NY46 whole entry): as the sequence (Q9NY46 whole entry, canonical isoform) above
hNaV1.3, sequence (Q07699 19-218, further chain): as the sequence (Q07699 19-218, further chain) above

CC(C)C[C@@H]1NC(=O)[C@H](Cc2ccccc2)NC(=O)[C@H](Cc2ccc(O)cc2)NC(=O)[C@H](CCCNC(=N)N)NC(=O)[C@@H](NC(=O)[C@@H](N)CCC(=O)O)CSSC[C@@H]2NC(=O)[C@@H]3CSSC[C@@H](C(=O)N[C@H](C(=O)N[C@@H](Cc4c[nH]c5ccccc45)C(=O)N[C@@H](CC(=O)O)C(=O)N[C@@H](Cc4c[nH]c5ccccc45)C(=O)N[C@H](C(=O)N[C@@H](Cc4ccccc4)C(N)=O)[C@@H](C)O)C(C)C)NC(=O)[C@H](Cc4c[nH]c5ccccc45)NC(=O)[C@H](CCC(N)=O)NC(=O)[C@H](Cc4c[nH]cn4)NC(=O)[C@H](CCCCN)NC(=O)[C@H](CC(N)=O)NC(=O)[C@H](Cc4c[nH]cn4)NC(=O)[C@H](CSSC[C@H](NC(=O)CNC(=O)CNC1=O)C(=O)N[C@@H](CO)C(=O)N[C@@H](CCC(N)=O)C(=O)NCC(=O)N[C@@H](CCC(=O)O)C(=O)N[C@@H](CCCCN)C(=O)N3)NC(=O)[C@H](C(C)C)NC(=O)[C@H](CC(C)C)NC(=O)[C@H](Cc1c[nH]cn1)NC(=O)[C@H](CCC(=O)O)NC2=O [sOa1a-NH2] (H-ECRYFLGGCSQGEKCCEHLVCHNKHQWCVWDWTF-NH2; disulfide 2-16, 9-21, 15-28; N-terminus assumed)
Slowing of fast inactivation of NaV1.3 (in words) ([1]; closed-state voltage protocol, current traces, concentrations up to those of IC50 curves): strongly slowing the fast inactivation of NaV1.3
EC50 ([1]; current measured at 20 ms of the 0 mV depolarization step, 5 min incubation, mean ± SEM, 3 to 5 repeats): 22.9 ± 1.8 nM
IC50 [2]: 2290 ± 77 nM
IC50 [3]: 154 ± 7 nM
IC50 [4]: 162 ± 8 nM
95% CI of off-rate (dissociation time), NaV1.1 ([5]; peptide at 10× IC50 for 10 min, then saline washes, 95% CI, 3 to 5 independent repeats): Off-rate 4.6 min (95% CI = 4.27 to 4.97 min)
Reversibility on NaV1.1 by washing ([5]; peptide at 10× IC50 for NaV1.1, then washing): completely reversed by washing
Increase in off-rate through C-terminal amidation, NaV1.1 ([5]; sOa1a-NH2 vs sOa1a-OH): 1 min
IC50 [6]: 25 ± 0.4 nM
NaV subtype preference of inhibition (in words) [7]: strong preference for inhibiting NaV1.1

From PMC12656268, “Venom Peptides Across Asian and American Tarantulas Utilize Dual Pharmacology to Target Activation and Fast Inactivation of Voltage-Gated Sodium Channels” (Toxins, 2025)
